Among the data in patent US20080207728A1, “BICYCLIC ACYLTRYPTOPHANOLS” (priority 2006, published 2008) are IC50 values, retold here.

The first assay addresses T1, human FSH receptor (Homo sapiens, UniProt P23945).
T1 construct: expressed in transfected cells; host or cells: CHO cells (hFSHR clone 16)
T1 sequence (P23945 18-695): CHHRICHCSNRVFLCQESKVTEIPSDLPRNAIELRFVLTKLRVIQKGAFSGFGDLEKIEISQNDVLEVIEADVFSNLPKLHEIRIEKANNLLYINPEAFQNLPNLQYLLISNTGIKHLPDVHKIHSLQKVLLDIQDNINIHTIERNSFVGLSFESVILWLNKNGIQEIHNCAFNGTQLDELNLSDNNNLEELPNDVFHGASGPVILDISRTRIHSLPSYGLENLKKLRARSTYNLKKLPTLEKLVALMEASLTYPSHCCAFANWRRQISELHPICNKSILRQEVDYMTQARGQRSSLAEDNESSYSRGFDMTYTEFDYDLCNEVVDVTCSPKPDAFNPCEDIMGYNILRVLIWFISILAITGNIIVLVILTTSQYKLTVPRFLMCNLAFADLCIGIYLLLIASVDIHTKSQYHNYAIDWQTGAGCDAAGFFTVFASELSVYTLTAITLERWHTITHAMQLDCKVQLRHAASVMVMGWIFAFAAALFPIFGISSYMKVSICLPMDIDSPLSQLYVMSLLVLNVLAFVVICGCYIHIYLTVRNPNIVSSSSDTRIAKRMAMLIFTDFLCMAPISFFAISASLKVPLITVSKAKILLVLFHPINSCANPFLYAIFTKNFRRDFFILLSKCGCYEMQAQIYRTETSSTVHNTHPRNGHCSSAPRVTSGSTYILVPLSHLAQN
Briefly: HTRF assay for measuring cAMP in cells (FSH antagonism). It is filed as cell-based. Conditions: Table 1; hFSHR clone 16 cells (CHO cells stably transfected with the human FSH receptor), in the presence of 1e-9 mol/l hFSH, 37° C. for 2 h; read-out: IC50 (FSH-antagonistic effect in the HTRF assay). On the procedure: HTRF Assay for Measuring cAMP in Cells
The method is based on a competitive immunoassay between native cAMP, which has been produced by the cells, and cAMP which is labelled with XL665. The tracer binding was visualized by a monoclonal antibody, anti-cAMP labelled with cryptate [HTRF=homogeneous time-resolved fluorescence].
The specific signal is inversely proportional to the cAMP concentration of the samples employed.
The 665 nm/620 nm fluorescence ratio was evaluated.
The following material was used: 96-well plates for the tissue culture, 96-well plates with black edge and black base (e.g. Fluotrac 600 from Greiner), 96-well plates for the substance dilutions of polypropylene and cAMP Femtomolar (4000 wells Kit, CIS Bio International # 62AM1PEC).
The following reagents were used: BSA (bovine serum albumin) Fraction V protease-free, IBMX (3-isobutyl-1-methylxanthine), hFSH (human follicle stimulating hormone), Triton X-100 analytical grade, potassium fluoride analytical grade, G 418 (Geneticin) and Accutase.
Buffer 1 (washing and testing buffer) contained PBS, 1 mM CaCl2, 1 mM MgCl2, 0.2% glucose; 0.1% BSA, 1 mM IBMX.
Buffer 2 (2× lysis buffer) contained 1% Triton X-100 in PBS (without CaCl2 and MgCl2).
Buffer 3 (assay buffer) contained 50 mM potassium phosphate buffer (pH 7.0); 800 mM potassium fluoride; 0.2% BSA (always added fresh).
On day 1, the cells were seeded in 96-well plates (3×10^4 cells per well hFSHR clone 16 cells (CHO cells stably transfected with the human FSH receptor in 150 μl of medium).
The next day, test substance dilutions were made up. For this purpose, all the substances were diluted in ice-cold buffer 1 (with or without hFSH), and the substance dilutions were placed on ice until applied to the cells.
The cell supernatant was then aspirated off, and the cells were washed 2× with 200 μl of buffer 1. The cells were treated with 60 μl of the appropriate substance concentrations at 37° C. for 2 h. The cells were then lysed with 60 μl of buffer 2 (put onto the supernatant) (on a plate shaker at RT for 30 min).
The test conjugates (XL-665 and anti-cAMP cryptate) were diluted in buffer 3 in accordance with the manufacturers' information. The actual mixture for measurement was pipetted into a black 96-well plate (in each case 15 μl of the cell lysate diluted with 35 μl of buffer 1; firstly 25 μl of XL-665 conjugate were pipetted and, after 10 min, 25 μl of the anti-cAMP cryptate were added). This is followed by incubation at RT for 90 minutes. The measurement was carried out in a PheraStar (BMG).
Tissue Culture Conditions
Dose-effect curve (hFSH) for the human receptor: 1e-8, 3e-9, 1 e-9, 3e-10, 1 e-10, 3e-11, 1e-11, 3e-12 mol/l.
The test substances were employed in suitable dilutions in the absence (test for agonism) and in the presence of 1e-9 mol/l hFSH.
The values of the well ratio were averaged and then entered directly in SigmaPlot versus the concentrations. The maximum and minimum values were determined for each plate, and half the difference is to be regarded as IC50.
For `CNC(=O)c1cc(F)cc(-c2cc3c(c(C(=O)NC(CO)Cc4c[nH]c5cccc(C)c45)c2)OCCCC3)c1` (stereo not shown) [Example 86, 7-(3-Fluoro-5-methylcarbamoyl-phenyl)-2,3,4,5-tetrahydro-benzo[b]oxepine-9-carboxylic acid [2-hydroxy-1-(4-methyl-1H-indol-3-ylmethyl)-ethyl]-amide], the IC50 worked out at 1500 nM.

For `N#CCc1ccc(-c2cc3c(c(C(=O)N[C@@H](CO)Cc4c[nH]c5ccccc45)c2)OCC3)cc1` [Example 73, 5-(4-Cyanomethyl-phenyl)-2,3-dihydro-benzofuran-7-carboxylic acid [(R)-1-hydroxymethyl-2-(1H-indol-3-yl)-ethyl]-amide], the half-maximal inhibitory concentration (IC50) is 2000 nM. The same measure, in the same setting: then `CNC(=O)c1cc(F)cc(-c2cc3c(c(C(=O)N[C@@H](CO)Cc4c[nH]c5ccccc45)c2)OCC3)c1` [Example 82, 5-(3-Fluoro-5-methylcarbamoyl-phenyl)-2,3-dihydro-benzofuran-7-carboxylic acid [(R)-1-hydroxymethyl-2-(1H-indol-3-yl)-ethyl]-amide], with 4000 nM. The same measure, in the same setting: for `O=C(N[C@@H](CO)Cc1c[nH]c2ccccc12)c1cc(-c2ccc3c(c2)OCO3)cc2c1OCC2` [Example 23, 5-Benzo[1,3]dioxol-5-yl-2,3-dihydro-benzofuran-7-carboxylic acid [(R)-1-hydroxymethyl-2-(1H-indol-3-yl)-ethyl]-amide] the value was 450 nM. Still for that read-out and setting: then `CNC(=O)c1ccc(-c2cc3c(c(C(=O)N[C@@H](CO)Cc4c[nH]c5ccccc45)c2)OCC3)cc1` [Example 65, 5-(4-Methylcarbamoyl-phenyl)-2,3-dihydro-benzofuran-7-carboxylic acid [(R)-1-hydroxymethyl-2-(1H-indol-3-yl)-ethyl]-amide], with 2000 nM. Take `CNC(=O)c1ccc(C#Cc2cc3c(c(C(=O)NC(CO)Cc4c[nH]c5cc(F)ccc45)c2)OCCCC3)cc1` (stereo not shown) [Example 84, 7-(4-Methylcarbamoyl-phenylethynyl)-2,3,4,5-tetrahydro-benzo[b]oxepine-9-carboxylic acid [2-(6-fluoro-1H-indol-3-yl)-1-hydroxymethyl-ethyl]-amide]: the IC50 came out at 50 nM. Same read-out and setting: for `Cc1cc(C)cc(-c2cc3c(c(C(=O)N[C@@H](CO)Cc4c[nH]c5ccccc45)c2)OCC3)c1` [Example 78, 5-(3,5-Dimethyl-phenyl)-2,3-dihydro-benzofuran-7-carboxylic acid [(R)-1-hydroxymethyl-2-(1H-indol-3-yl)-ethyl]-amide] the value was 3000 nM; for `O=C(N[C@@H](CO)Cc1c[nH]c2ccccc12)c1cc(-c2ccc3ccccc3c2)cc2c1OCC2` [Example 43, 5-Naphthalen-2-yl-2,3-dihydro-benzofuran-7-carboxylic acid [(R)-1-hydroxymethyl-2-(1H-indol-3-yl)-ethyl]-amide], 4000 nM.

Consider `COc1ccccc1C#Cc1cc2c(c(C(=O)N[C@@H](CO)Cc3c[nH]c4ccccc34)c1)OCCO2` [Example 85, 7-(2-Methoxy-phenylethynyl)-2,3-dihydro-benzo[1,4]dioxine-5-carboxylic acid [(R)-1-hydroxymethyl-2-(1H-indol-3-yl)-ethyl]-amide], for which the IC50 was determined as 200 nM.

Still in this assay, the particulars now being: Table 2; hFSHR clone 16 cells (CHO cells stably transfected with the human FSH receptor), in the presence of 1e-9 mol/l hFSH, 37° C. for 2 h; read-out: IC50 (FSH-antagonistic effect in the HTRF assay).
`CNC(=O)c1ccc(-c2cc3c(c(C(=O)NC(CO)Cc4c[nH]c5ccc(F)cc45)c2)OC(C)(C)C=C3)cc1Cl` (stereo not shown) [Example 89, 6-(3-Chloro-4-methylcarbamoyl-phenyl)-2,2-dimethyl-2H-chromene-8-carboxylic acid [2-(5-fluoro-1H-indol-3-yl)-1-hydroxymethyl-ethyl]-amide]: the IC50 was found to be 20 nM. Regarding `O=C(N[C@@H](CO)Cc1c[nH]c2ccccc12)c1cc(-c2ccc(-c3ccccc3)cc2)cc2c1OCCO2` [Example 92, 7-Biphenyl-4-yl-2,3-dihydro-benzo[1,4]dioxine-5-carboxylic acid [(R)-1-hydroxymethyl-2-(1H-indol-3-yl)-ethyl]-amide], the IC50 is 500 nM. On the same count and under the same terms, for `CNC(=O)c1cccc(C#Cc2cc3c(c(C(=O)NC(CO)Cc4c[nH]c5cc(F)ccc45)c2)OCCCC3)c1` (stereo not shown) [Example 91, 7-(3-Methylcarbamoyl-phenylethynyl)-2,3,4,5-tetrahydro-benzo[b]oxepine-9-carboxylic acid [2-(6-fluoro-1H-indol-3-yl)-1-hydroxymethyl-ethyl]-amide] the value was 60 nM; for `Cc1ccccc1-c1cc2c(c(C(=O)N[C@@H](CO)Cc3c[nH]c4ccccc34)c1)OCCO2` [Example 143, 7-o-Tolyl-2,3-dihydro-benzo[1,4]dioxine-5-carboxylic acid [(R)-1-hydroxymethyl-2-(1H-indol-3-yl)-ethyl]-amide], 9000 nM; for `O=C(N[C@@H](CO)Cc1c[nH]c2ccccc12)c1cc(-c2ccc(CO)cc2)cc2c1OCCO2` [Example 96, 7-(4-Hydroxymethyl-phenyl)-2,3-dihydro-benzo[1,4]dioxine-5-carboxylic acid [(R)-1-hydroxymethyl-2-(1H-indol-3-yl)-ethyl]-amide], 1000 nM.

For the compound `CSc1cccc(-c2cc3c(c(C(=O)N[C@@H](CO)Cc4c[nH]c5ccccc45)c2)OCCO3)c1` [Example 100, 7-(3-Methylsulfanyl-phenyl)-2,3-dihydro-benzo[1,4]dioxine-5-carboxylic acid [(R)-1-hydroxymethyl-2-(1H-indol-3-yl)-ethyl]-amide], the half-maximal inhibitory concentration (IC50) is 900 nM. Consider `CNC(=O)c1ccc(-c2cc3c(c(C(=O)N[C@@H](CO)Cc4c[nH]c5ccccc45)c2)OCCO3)cc1` [Example 142, 7-(4-Methylcarbamoyl-phenyl)-2,3-dihydro-benzo[1,4]dioxine-5-carboxylic acid [(R)-1-hydroxymethyl-2-(1H-indol-3-yl)-ethyl]-amide], for which the IC50 was 200 nM. Same read-out and setting: for `COc1ccc(-c2cc3c(c(C(=O)N[C@@H](CO)Cc4c[nH]c5ccccc45)c2)OCCO3)cc1F` [Example 109, 7-(3-Fluoro-4-methoxy-phenyl)-2,3-dihydro-benzo[1,4]dioxine-5-carboxylic acid [(R)-1-hydroxymethyl-2-(1H-indol-3-yl)-ethyl]-amide] the value was 950 nM; for `N#Cc1cc(-c2cc3c(c(C(=O)N[C@@H](CO)Cc4c[nH]c5ccccc45)c2)OCCO3)ccc1F` [Example 104, 7-(3-Cyano-4-fluoro-phenyl)-2,3-dihydro-benzo[1,4]dioxine-5-carboxylic acid [(R)-1-hydroxymethyl-2-(1H-indol-3-yl)-ethyl]-amide], 1000 nM. The same measure, in the same setting: then `COC(=O)c1ccc(-c2cc3c(c(C(=O)N[C@@H](CO)Cc4c[nH]c5ccccc45)c2)OCCO3)cc1OC` [Example 118, 4-{8-[(R)-1-Hydroxymethyl-2-(1H-indol-3-yl)-ethylcarbamoyl]-2,3-dihydro-benzo[1,4]dioxin-6-yl}-2-methoxy-benzoic acid methyl ester], with 130 nM.

As a reminder, the IC50 is the concentration at which inhibition is half-maximal.
